For one test, the target named is Rho kinase 1 (Homo sapiens, UniProt Q13464). In words: In vitro Rho kinase inhibitory activity assay (ADP-Glo kit, Myelin Basic Protein substrate). Type of test: biochemical. The following applies: 10 μM ATP, 25° C., read-out: ROCK1 inhibitory activity (Ki, range of activity). Summed up:
(§1)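 Each kinase (ROCK1 or ROCK2) sat with compound for 30 min at 25 °C before 10 μM ATP started a 1 h reaction on 2.5 μM myelin basic protein (Tris pH 7.5, MgCl2, BSA, DTT, 1% DMSO). ADP formed was read by ADP-Glo luminescence. Dose-response IC50s were converted to Ki by Cheng-Prusoff.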
For orientation: ADP-Glo first removes unused ATP, then detects ADP through luciferase.

A further test concerns the target Rho kinase 2 (Homo sapiens, UniProt O75116). Described as above. The class given is biochemical. As to conditions: 10 μM ATP, 25° C., read-out: ROCK2 inhibitory activity (Ki, range of activity). A digest of the protocol:
as §1

Rho kinase 2, sequence (O75116 whole entry): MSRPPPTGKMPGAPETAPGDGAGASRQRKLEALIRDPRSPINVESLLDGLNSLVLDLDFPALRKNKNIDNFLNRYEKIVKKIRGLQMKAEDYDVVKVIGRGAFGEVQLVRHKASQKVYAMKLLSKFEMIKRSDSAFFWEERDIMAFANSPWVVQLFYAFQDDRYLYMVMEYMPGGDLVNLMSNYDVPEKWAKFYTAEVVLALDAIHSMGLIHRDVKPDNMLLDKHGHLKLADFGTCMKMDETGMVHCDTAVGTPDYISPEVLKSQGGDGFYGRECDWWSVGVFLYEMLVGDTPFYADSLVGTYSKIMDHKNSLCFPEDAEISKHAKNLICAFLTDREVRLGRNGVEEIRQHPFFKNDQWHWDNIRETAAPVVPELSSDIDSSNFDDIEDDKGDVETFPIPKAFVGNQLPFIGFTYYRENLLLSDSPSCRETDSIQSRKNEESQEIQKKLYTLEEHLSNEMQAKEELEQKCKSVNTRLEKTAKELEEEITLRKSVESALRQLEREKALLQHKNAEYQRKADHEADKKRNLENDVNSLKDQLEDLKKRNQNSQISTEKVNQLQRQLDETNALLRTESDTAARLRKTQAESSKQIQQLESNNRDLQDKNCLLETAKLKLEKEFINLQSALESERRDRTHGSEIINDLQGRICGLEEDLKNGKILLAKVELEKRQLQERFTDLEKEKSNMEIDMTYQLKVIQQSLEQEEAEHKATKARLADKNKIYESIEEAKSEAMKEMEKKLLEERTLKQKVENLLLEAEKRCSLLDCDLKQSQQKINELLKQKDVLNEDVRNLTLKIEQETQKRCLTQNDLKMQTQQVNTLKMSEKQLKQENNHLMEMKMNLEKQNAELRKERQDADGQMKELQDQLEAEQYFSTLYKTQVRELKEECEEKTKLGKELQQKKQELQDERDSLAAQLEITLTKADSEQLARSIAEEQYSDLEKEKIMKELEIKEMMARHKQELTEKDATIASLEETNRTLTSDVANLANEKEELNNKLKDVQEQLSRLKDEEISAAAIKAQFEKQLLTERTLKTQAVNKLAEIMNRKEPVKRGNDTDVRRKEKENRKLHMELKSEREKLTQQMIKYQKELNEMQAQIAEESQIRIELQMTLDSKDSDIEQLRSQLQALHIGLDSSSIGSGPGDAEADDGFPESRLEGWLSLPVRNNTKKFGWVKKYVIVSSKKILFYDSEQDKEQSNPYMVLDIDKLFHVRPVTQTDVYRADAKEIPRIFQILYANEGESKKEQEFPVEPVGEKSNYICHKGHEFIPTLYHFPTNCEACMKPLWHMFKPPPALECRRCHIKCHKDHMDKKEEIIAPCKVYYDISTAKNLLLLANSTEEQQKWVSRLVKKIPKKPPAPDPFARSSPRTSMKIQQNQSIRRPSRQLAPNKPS
Rho kinase 1, sequence (Q13464 whole entry): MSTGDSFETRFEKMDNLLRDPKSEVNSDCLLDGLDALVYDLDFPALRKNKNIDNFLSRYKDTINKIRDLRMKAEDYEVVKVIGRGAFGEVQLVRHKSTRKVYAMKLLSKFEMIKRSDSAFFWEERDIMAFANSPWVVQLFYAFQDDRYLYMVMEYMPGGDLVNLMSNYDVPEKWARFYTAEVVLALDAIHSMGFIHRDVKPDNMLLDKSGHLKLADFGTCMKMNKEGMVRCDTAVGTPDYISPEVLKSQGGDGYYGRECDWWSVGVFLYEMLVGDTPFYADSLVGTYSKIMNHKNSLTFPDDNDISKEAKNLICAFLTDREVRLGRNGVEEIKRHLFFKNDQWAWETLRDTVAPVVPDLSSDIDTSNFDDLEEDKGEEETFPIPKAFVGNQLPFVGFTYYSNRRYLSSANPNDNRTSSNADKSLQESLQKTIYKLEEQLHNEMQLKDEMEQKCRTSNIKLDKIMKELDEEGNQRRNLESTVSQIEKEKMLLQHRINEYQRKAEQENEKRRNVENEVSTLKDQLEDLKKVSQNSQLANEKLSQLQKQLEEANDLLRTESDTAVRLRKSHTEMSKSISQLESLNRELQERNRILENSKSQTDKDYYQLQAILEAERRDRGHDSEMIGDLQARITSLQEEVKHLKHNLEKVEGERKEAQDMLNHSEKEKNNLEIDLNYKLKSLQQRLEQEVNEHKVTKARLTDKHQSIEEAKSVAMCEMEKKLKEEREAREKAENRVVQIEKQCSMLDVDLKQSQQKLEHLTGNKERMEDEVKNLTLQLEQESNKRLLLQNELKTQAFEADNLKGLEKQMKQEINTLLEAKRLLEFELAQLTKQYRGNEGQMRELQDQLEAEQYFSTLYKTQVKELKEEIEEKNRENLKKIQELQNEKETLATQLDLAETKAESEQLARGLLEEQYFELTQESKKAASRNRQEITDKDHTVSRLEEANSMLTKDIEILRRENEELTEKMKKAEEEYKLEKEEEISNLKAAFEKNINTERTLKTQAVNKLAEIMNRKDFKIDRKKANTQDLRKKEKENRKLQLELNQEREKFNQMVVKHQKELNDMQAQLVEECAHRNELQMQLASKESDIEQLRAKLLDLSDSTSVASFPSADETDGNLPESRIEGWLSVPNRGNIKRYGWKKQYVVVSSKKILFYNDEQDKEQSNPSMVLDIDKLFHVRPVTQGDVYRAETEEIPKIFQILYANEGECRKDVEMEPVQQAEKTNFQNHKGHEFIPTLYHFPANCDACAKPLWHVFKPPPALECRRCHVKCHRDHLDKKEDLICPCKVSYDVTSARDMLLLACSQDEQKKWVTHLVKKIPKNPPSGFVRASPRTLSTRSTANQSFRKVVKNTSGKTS

As usually defined, the Ki is the dissociation constant of the complex between target and ligand, obtained from inhibition or displacement. Turning to `CC1=C(C(=O)Nc2ccc3[nH]ncc3c2)C(c2ccc(F)cc2)n2nc(C(=O)O)cc2N1` (stereo not shown) [Example 75, 6-((1H-indazol-5-yl)carbamoyl)-7-(4-fluorophenyl)-5-methyl-4,7-dihydropyrazolo[1,5-a]pyrimidine-2-carboxylic acid], the Ki on Rho kinase 1 and at Rho kinase 2 was less than 50 nM throughout.
In the case of `CC1=C(C(=O)Nc2ccc3[nH]ncc3c2)C(c2ccc(C(F)(F)F)cc2)n2nc(C(=O)N3CCN(C)CC3)cc2N1` (stereo not shown) [Example 76, N-(1H-indazol-5-yl)-5-methyl-2-(4-methylpiperazine-1-carbonyl)-7-(4-(trifluoromethyl)phenyl)-4,7-dihydropyrazolo[1,5-a]pyrimidine-6-carboxamide], the Ki at Rho kinase 1 and on Rho kinase 2 was less than 50 nM in each case.
As for `CC1=C(C(=O)Nc2ccc3cnccc3c2)C(c2ccc(C(F)(F)F)c(F)c2)n2nc(C(=O)NCC3CCN(C)CC3)cc2N1` (stereo not shown) [Example 84, 7-(3-fluoro-4-(trifluoromethyl)phenyl)-N6-(isoquinolin-6-yl)-5-methyl-N2-((1-methylpiperidin-4-yl)methyl)-4,7-dihydropyrazolo[1,5-a]pyrimidine-2,6-dicarboxamide], the Ki on Rho kinase 1 and at Rho kinase 2 was less than 50 nM each time.
Consider `CC1=C(C(=O)Nc2ccc3cnccc3c2)C(c2ccc(C(F)(F)F)c(F)c2)n2nc(C(=O)NCCN3CCCCC3)nc2N1` (single isomer, unassigned) [Example 129a, 7-(3-fluoro-4-(trifluoromethyl)phenyl)-N6-(isoquinolin-6-yl)-5-methyl-N2-(2-(piperidin-1-yl)ethyl)-4,7-dihydro-[1,2,4]triazolo[1,5-a]pyrimidine-2,6-dicarboxamide], for which the inhibitory constant (Ki) on Rho kinase 1 and on Rho kinase 2 was less than 50 nM throughout.
As for `CC1=C(C(=O)Nc2ccc3[nH]ncc3c2)C(c2ccc(F)cc2)n2nc(CO)cc2N1` (single isomer, unassigned) [Example 71A, 7-(4-fluorophenyl)-2-(hydroxymethyl)-N-(1H-indazol-5-yl)-5-methyl-4,7-dihydropyrazolo[1,5-a]pyrimidine-6-carboxamide], the Ki at Rho kinase 1 and at Rho kinase 2 was less than 50 nM each time.
On to `CC1=C(C(=O)Nc2ccc3cnccc3c2)C(c2ccc(C(F)(F)F)c(F)c2)n2nc(N3CCN(C)CC3)cc2N1` (stereo not shown) [Example 136, 7-(3-Fluoro-4-(trifluoromethyl)phenyl)-N-(isoquinolin-6-yl)-5-methyl-2-(4-methylpiperazin-1-yl)-4,7-dihydropyrazolo[1,5-a]pyrimidine-6-carboxamide], for which the Ki at Rho kinase 1 and on Rho kinase 2 was less than 50 nM each time.
As for `CC1=C(C(=O)Nc2ccc3[nH]ncc3c2)C(c2ccc(F)cc2)n2nc(C(=O)N3CCOCC3)cc2N1` (stereo not shown) [Example 90, 7-(4-fluorophenyl)-N-(1H-indazol-5-yl)-5-methyl-2-(morpholine-4-carbonyl)-4,7-dihydropyrazolo[1,5-a]pyrimidine-6-carboxamide], the Ki at Rho kinase 1 and on Rho kinase 2 was less than 50 nM throughout.
In the case of `CC1=C(C(=O)Nc2ccc3cnccc3c2)C(c2ccc(C(F)(F)F)c(F)c2)n2nc(CN3CCC4(CCN(C)CC4)C3)cc2N1` (stereo not shown) [Example 103, 7-(3-fluoro-4-(trifluoromethyl)phenyl)-N-(isoquinolin-6-yl)-5-methyl-2-((8-methyl-2,8-diazaspiro[4.5]decan-2-yl)methyl)-4,7-dihydropyrazolo[1,5-a]pyrimidine-6-carboxamide], the Ki on Rho kinase 1 and at Rho kinase 2 was less than 50 nM each time.
For the compound `CC1=C(C(=O)Nc2ccc3cnccc3c2)C(c2ccc(C(F)(F)F)c(F)c2)n2nc(C(=O)N(C)CCN3CCCCC3)cc2N1` (single isomer, unassigned) [Example 78B, 7-(3-fluoro-4-(trifluoromethyl)phenyl)-N6-(isoquinolin-6-yl)-N2,5-dimethyl-N2-(2-(piperidin-1-yl)ethyl)-4,7-dihydropyrazolo[1,5-a]pyrimidine-2,6-dicarboxamide], the Ki at Rho kinase 1 and at Rho kinase 2 was less than 50 nM throughout.
Take `CC1=C(C(=O)Nc2ccc3cnccc3c2)C(c2ccc(C(F)(F)F)c(F)c2)n2nc(CNC(=O)CCN3CCCCC3)cc2N1` (single isomer, unassigned) [Example 138A, 7-(3-Fluoro-4-(trifluoromethyl)phenyl)-N-(isoquinolin-6-yl)-5-methyl-2-((3-(piperidin-1-yl)propanamido)methyl)-4,7-dihydropyrazolo[1,5-a]pyrimidine-6-carboxamide]: the inhibition constant Ki on Rho kinase 1 and on Rho kinase 2 was less than 50 nM throughout.
Take `CC1=C(C(=O)Nc2ccc3cnccc3c2)C(c2ccc(C(F)(F)F)c(F)c2)n2nc(N)cc2N1` (stereo not shown) [Example 130, 2-Amino-7-(3-fluoro-4-(trifluoromethyl)phenyl)-N-(isoquinolin-6-yl)-5-methyl-4,7-dihydropyrazolo[1,5-a]pyrimidine-6-carboxamide]: the Ki at Rho kinase 1 and on Rho kinase 2 was less than 50 nM each time.
Regarding `CC1=C(C(=O)Nc2ccc3cnccc3c2)C(c2ccc(C(F)(F)F)c(F)c2)n2nc(CO)cc2N1` (single isomer, unassigned) [Example 65B, 7-(3-fluoro-4-(trifluoromethyl)phenyl)-2-(hydroxymethyl)-N-(isoquinolin-6-yl)-5-methyl-4,7-dihydropyrazolo[1,5-a]pyrimidine-6-carboxamide], the Ki on Rho kinase 1 and on Rho kinase 2 was less than 50 nM each time.
In the case of `CC1=C(C(=O)Nc2ccc3cnccc3c2)C(c2ccc(Br)cc2)n2nc(CO)cc2N1` (single isomer, unassigned) [Example 61B, 7-(4-bromophenyl)-2-(hydroxymethyl)-N-(isoquinolin-6-yl)-5-methyl-4,7-dihydropyrazolo[1,5-a]pyrimidine-6-carboxamide], the Ki on Rho kinase 1 and at Rho kinase 2 was 50 to 500 nM throughout.
In the case of `CC1=C(C(=O)Nc2ccc3cnccc3c2)C(c2ccc(Br)c(F)c2)n2nc(CO)cc2N1` (stereo not shown) [Example 55, 7-(4-bromo-3-fluorophenyl)-2-(hydroxymethyl)-N-(isoquinolin-6-yl)-5-methyl-4,7-dihydropyrazolo[1,5-a]pyrimidine-6-carboxamide], the Ki on Rho kinase 1 and on Rho kinase 2 was less than 50 nM in each case.
Turning to `CC1=C(C(=O)Nc2ccc3cnccc3c2)C(c2cccc(Oc3ccccc3)c2)n2nc(CO)cc2N1` (stereo not shown) [Example 50, 2-(hydroxymethyl)-N-(isoquinolin-6-yl)-5-methyl-7-(3-phenoxyphenyl)-4,7-dihydropyrazolo[1,5-a]pyrimidine-6-carboxamide], the Ki on Rho kinase 1 was 50 to 500 nM; on Rho kinase 2, less than 50 nM.
In the same order, the values of `CC1=C(C(=O)Nc2ccc3cnccc3c2)C(c2ccc(Cl)cc2F)n2nc(CO)cc2N1` (stereo not shown) [Example 64, 7-(4-chloro-2-fluorophenyl)-2-(hydroxymethyl)-N-(isoquinolin-6-yl)-5-methyl-4,7-dihydropyrazolo[1,5-a]pyrimidine-6-carboxamide] are less than 50 nM and less than 50 nM.
Regarding `CC1=C(C(=O)Nc2ccc3cnccc3c2)C(c2ccc(C(F)(F)F)c(F)c2)n2nc(CN3CCCCC3)cc2N1` (single isomer, unassigned) [Example 97B, 7-(3-fluoro-4-(trifluoromethyl)phenyl)-N-(isoquinolin-6-yl)-5-methyl-2-(piperidin-1-ylmethyl)-4,7-dihydropyrazolo[1,5-a]pyrimidine-6-carboxamide], the Ki on Rho kinase 1 and at Rho kinase 2 was less than 50 nM throughout.
In the case of `CC1=C(C(=O)Nc2ccc3cnccc3c2)C(c2ccc(C(F)(F)F)c(F)c2)n2nc(NC(=O)COC3CCN(C)CC3)cc2N1` (stereo not shown) [Example 133, 7-(3-fluoro-4-(trifluoromethyl)phenyl)-N-(isoquinolin-6-yl)-5-methyl-2-(2-((1-methylpiperidin-4-yl)oxy)acetamido)-4,7-dihydropyrazolo[1,5-a]pyrimidine-6-carboxamide], the Ki at Rho kinase 1 and at Rho kinase 2 was less than 50 nM in each case.
For the compound `CC1=C(C(=O)Nc2ccc3cnccc3c2)C(c2ccc(C(F)(F)F)c(F)c2)n2nc(C(=O)N(C)C3CCN(C)CC3)cc2N1` (stereo not shown) [Example 88, 7-(3-fluoro-4-(trifluoromethyl)phenyl)-N6-(isoquinolin-6-yl)-N2,5-dimethyl-N2-(1-methylpiperidin-4-yl)-4,7-dihydropyrazolo[1,5-a]pyrimidine-2,6-dicarboxamide], the Ki at Rho kinase 1 and at Rho kinase 2 was less than 50 nM each time.
Consider `CC1=C(C(=O)Nc2ccc3[nH]ncc3c2)C(c2ccc(C(F)(F)F)c(F)c2)n2nnnc2N1` (single isomer, unassigned) [Example 25A, 7-(3-fluoro-4-(trifluoromethyl)phenyl)-N-(1H-indazol-5-yl)-5-methyl-4,7-dihydrotetrazolo[1,5-a]pyrimidine-6-carboxamide], for which the Ki at Rho kinase 1 and on Rho kinase 2 was less than 50 nM throughout.
Regarding `CC1=C(C(=O)Nc2ccc3[nH]ncc3c2)C(c2ccc(Cl)nc2)n2nc(C(F)(F)F)cc2N1` (single isomer, unassigned) [Example 32B, 7-(6-chloropyridin-3-yl)-N-(1H-indazol-5-yl)-5-methyl-2-(trifluoromethyl)-4,7-dihydropyrazolo[1,5-a]pyrimidine-6-carboxamide], the Ki on Rho kinase 1 and on Rho kinase 2 was less than 50 nM in each case.
As to `CC1=C(C(=O)Nc2ccc3[nH]ncc3c2)C(c2ccc(Cl)nc2)n2nc(C(F)(F)F)cc2N1` (single isomer, unassigned) [Example 32A, 7-(6-chloropyridin-3-yl)-N-(1H-indazol-5-yl)-5-methyl-2-(trifluoromethyl)-4,7-dihydropyrazolo[1,5-a]pyrimidine-6-carboxamide], the Ki on Rho kinase 1 and on Rho kinase 2 was greater than 500 nM throughout.
Take `CC1=C(C(=O)Nc2ccc3cnccc3c2)C(C2Cc3ccccc3C2)n2nc(CO)cc2N1` (single isomer, unassigned) [Example 60B, 7-(2,3-dihydro-1H-inden-2-yl)-2-(hydroxymethyl)-N-(isoquinolin-6-yl)-5-methyl-4,7-dihydropyrazolo[1,5-a]pyrimidine-6-carboxamide]: the Ki at Rho kinase 1 and at Rho kinase 2 was 50 to 500 nM each time.

Values taken from patent publication US10584128B2, “Bicyclic dihydropyrimidine-carboxamide derivatives as Rho-Kinase inhibitors” (CHIESI FARMACEUTICI S.p.A., priority 2016, dated 2020).
